# Tested on: HCV (Ib) RNA replication
# Experiment: Cell-based luciferase reporter HCV (1b) RNA replication assay (replicon cell lines Huh-7 5.2 and ET)
# Design: species or system Hepatitis C virus
# Settings: Hepatitis C virus, Huh-7, 96 h, HCV 1b genotype replicon, luciferase readout, 4 days incubation; read-out: EC50_1b
# How it was run: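 Compounds were tested at eleven concentrations in duplicate over 4 days at 37 °C, 5% CO2. The cells were luciferase-reporter HCV 1b replicon lines 5.2 (NS5A adaptive mutation) or ET (NS4B mutation). Luminescence of lysates was measured, and IC50s were derived by nonlinear curve fitting.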
row,SMILES,EC50 [nM]
1,"COC(=O)N[C@H](C(=O)N1CCC[C@H]1c1nc2cc(C#Cc3ccc4[nH]c([C@@H]5CCCN5C(=O)[C@H]5CCCO5)nc4c3)ccc2[nH]1)C(C)C [Compound 38, {(S)-2-Methyl-1-[(S)-2-(5-{2-[(S)-1-((R)-tetrahydro-furan-2-carbonyl)-pyrrolidin-2-yl]-1H-benzoimidazol-5-ylethynyl}-1H-benzoimidazol-2-yl)-pyrrolidine-1-carbonyl]-propyl}-carbamic acid methyl ester]",≤ 5
2,CC(C)[C@@H](C(=O)N1C[C@@H](C)C[C@H]1c1nc2cc(-c3ccc(-c4ccc5[nH]c([C@@H]6C[C@H](C)CN6C(=O)[C@H](C(C)C)N6CCOC6=O)nc5c4)cc3)ccc2[nH]1)N1CCOC1=O [Compound 306],≤ 5
3,COC(=O)N[C@H](C(=O)N1CCC[C@H]1c1nc2cc(-c3cc(C#N)c(-c4ccc5[nH]c([C@@H]6CCCN6C(=O)[C@@H](NC(=O)OC)C(C)C)nc5c4)cc3Cl)ccc2[nH]1)C(C)C [Compound 154],≤ 5
4,COC(=O)N[C@H](C(=O)N1C[C@@H](C)C[C@H]1c1nc2cc(-c3ccc(-c4ccc5[nH]c([C@@H]6C[C@H](C)CN6C(=O)[C@@H](Nc6ncccn6)C(C)C)nc5c4)cc3)ccc2[nH]1)C(C)C [Compound 262],≤ 5
5,O=C(CC1CCCC1)N1CCC[C@H]1c1nc2cc(C#Cc3ccc4[nH]c([C@@H]5CCCN5C(=O)CC5CCCC5)nc4c3)ccc2[nH]1 [Compound 125],5 to 5000
6,O=C(N1CCC[C@H]1c1nc2cc(C#Cc3ccc4[nH]c([C@@H]5CCCN5C(=O)C5(c6ccccc6)CC5)nc4c3)ccc2[nH]1)C1(c2ccccc2)CC1 [Compound 61],≤ 5
7,COC(=O)N[C@H](C(=O)N1CCC[C@H]1c1nc2cc(-c3nnc(-c4ccc5[nH]c([C@@H]6CCCN6C(=O)[C@@H](NC(=O)OC)C(C)C)nc5c4)s3)ccc2[nH]1)C(C)C [Compound 184],≤ 5
8,COC(=O)N[C@@H](C)C(=O)N1CCC[C@H]1c1nc2cc(C#Cc3ccc4[nH]c([C@@H]5CCCN5C(=O)[C@H](NC(=O)OC)c5ccccc5)nc4c3)ccc2[nH]1 [Compound 55],≤ 5
9,"COC(=O)N[C@H](C(=O)N1CCC[C@H]1c1nc2cc(-c3csc(-c4ccc5[nH]c([C@@H]6CCCN6C(=O)[C@@H](NC(=O)OC)C(C)C)nc5c4)c3)ccc2[nH]1)C(C)C [Compound 18, methyl N-[(1S)-1-[(2S)-2-[5-[4-[2-[(2S)-1-[(2S)-2-(methoxycarbonylamino)-3-methyl-butanoyl]pyrrolidin-2-yl]-1H-benzimidazol-5-yl]-2-thienyl]-1H-benzimidazol-2-yl]pyrrolidine-1-carbonyl]-2-methyl-propyl]carbamate]",≤ 5
10,COC(=O)N1CCC[C@H]1C(=O)N1C[C@@H](C)C[C@H]1c1nc2cc(-c3ccc(-c4ccc5[nH]c([C@@H]6C[C@H](C)CN6C(=O)[C@@H]6CCCN6C(=O)OC)nc5c4)cc3)ccc2[nH]1 [Compound 287],≤ 5
11,CC(C)(C)OC(=O)NC(CC1CCC1)C(=O)N1CCC[C@H]1c1nc2cc(C#Cc3ccc4[nH]c([C@@H]5CCCN5C(=O)[C@H](CC5CCC5)NC(=O)OC(C)(C)C)nc4c3)ccc2[nH]1 (some centres unmarked) [Compound 121],5 to 5000
12,O=C(NC1CC1)c1nc2cc(C#Cc3ccc4[nH]c([C@@H]5CCCN5C(=O)OCc5ccccc5)nc4c3)ccc2[nH]1 [Compound 51],5 to 5000
13,CCCCc1cc(-c2ccc3[nH]c([C@@H]4CCCN4C(=O)[C@@H](NC(=O)O[C@H]4CCOC4)C(C)C)nc3c2)sc1-c1ccc2[nH]c([C@@H]3CCCN3C(=O)[C@@H](NC(=O)O[C@H]3CCOC3)C(C)C)nc2c1 [Compound 158],≤ 5
14,COC(=O)N(C)[C@H](C(=O)N1C[C@@H](C)C[C@H]1c1nc2ccc(-c3ccc(-c4ccc5nc([C@@H]6C[C@H](C)CN6C(=O)[C@H](C(C)C)N(C)C(=O)OC)n(C)c5c4)cc3)cc2n1C)C(C)C [Compound 295],≤ 5
15,COC(=O)N[C@H](C(=O)N1C[C@@H](C)C[C@H]1c1nc2cc(-c3ccc(-c4ccc5[nH]c([C@@H]6C[C@H](C)CN6C(=O)[C@H](C(C)C)N6CCOC6=O)nc5c4)cc3)ccc2[nH]1)C(C)C [Compound 305],≤ 5
16,COC(=O)N[C@H](C(=O)N1CCC[C@H]1c1nc2cc(C#Cc3ccc4[nH]c([C@@H]5CCCN5C(=O)[C@@H](NC(=O)OC)[C@@H](C)OC)nc4c3)ccc2[nH]1)[C@@H](C)OC [Compound 206],≤ 5
17,COC(=O)N[C@H](C(=O)N1C[C@@H](C)C[C@H]1c1nc2cc(-c3ccc(-c4ccc5[nH]c([C@@H]6C[C@H](C)CN6C(=O)[C@@H]6CCCN6C(=O)OC)nc5c4)cc3)ccc2[nH]1)C(C)C [Compound 288],≤ 5
18,O=C(OCc1ccccc1)N1CCC[C@H]1c1nc2ccc(N3CCN(c4ccc5nc([C@@H]6CCCN6C(=O)OCc6ccccc6)[nH]c5c4)CC3)cc2[nH]1 [Compound 210],5 to 5000

row,SMILES,EC50 [nM]
1,COC(=O)N(C)[C@H](C(=O)N1C[C@@H](C)C[C@H]1c1nc2cc(-c3cc4sc(-c5ccc6[nH]c([C@@H]7C[C@H](C)CN7C(=O)[C@H](C(C)C)N(C)C(=O)OC)nc6c5)cc4s3)ccc2[nH]1)C(C)C [Compound 260],≤ 5
2,"CC(C)(C)OC(=O)N1CCN(C(=O)OCc2ccccc2)[C@H](c2nc3cc(C#Cc4ccc5[nH]c([C@@H]6CN(C(=O)OC(C)(C)C)CCN6C(=O)OCc6ccccc6)nc5c4)ccc3[nH]2)C1 [Compound 29, (S)-2-{5-[2-((S)-1-Benzyloxycarbonyl-4-tert-butyloxycarbonyl-piperazin-2-yl)-1H-benzoimidazol-5-ylethynyl]-1H-benzoimidazol-2-yl}-piperazine-1,4-dicarboxylic acid 1-benzyl ester 4-tert-butyl ester]",> 5000
3,COC(=O)N[C@H](C(=O)N1CCC[C@H]1c1nc2ccc(CCc3ccc4nc([C@@H]5CCCN5C(=O)[C@@H](NC(=O)OC)C(C)C)[nH]c4c3)cc2[nH]1)C(C)C [Compound 64],≤ 5
4,O=C(N1CCOCC1)N1CCC[C@H]1c1nc2cc(C#Cc3ccc4[nH]c([C@@H]5CCCN5C(=O)N5CCOCC5)nc4c3)ccc2[nH]1 [Compound 75],≤ 5
5,COC(=O)N[C@H](CN1CCC[C@H]1c1nc2cc(-c3ccc(-c4ccc5[nH]c([C@@H]6CCCN6C[C@@H](NC(=O)OC)C(C)C)nc5c4)cc3)ccc2[nH]1)C(C)C [Compound 195],5 to 5000
6,CC(C)(C)OC(=O)N1CCCC[C@H]1c1nc2cc(C#Cc3ccc4[nH]c([C@@H]5CCCCN5C(=O)OC(C)(C)C)nc4c3)ccc2[nH]1 [Compound 92],≤ 5
7,COC(=O)N[C@H](C(=O)N1CC[C@H](C)[C@H]1c1nc2cc(-c3ccc(-c4ccc5[nH]c([C@@H]6[C@@H](C)CCN6C(=O)[C@@H](NC(=O)OC)C(C)C)nc5c4)cc3)ccc2[nH]1)C(C)C [Compound 267],≤ 5
8,"COC(=O)N[C@H](C(=O)N1CCC[C@H]1c1nc2cc(F)c(-c3ccc(-c4cc5[nH]c([C@@H]6CCCN6C(=O)[C@@H](NC(=O)OC)C(C)C)nc5cc4F)cc3)cc2[nH]1)C(C)C [Compound 27, Dimethyl (2S,2′S)-1,1′-((2S,2′S)-2,2′-(5,5′-(1,4-phenylene)bis(6-fluoro-1H-benzo[d]imidazole-5,2-diyl))bis(pyrrolidine-2,1-diyl))bis(3-methyl-1-oxobutane-2,1-diyl)dicarbamate]",≤ 5
9,C[C@H](C(=O)N1CCC[C@H]1c1nc2cc(C#Cc3ccc4[nH]c([C@@H]5CCCN5C(=O)[C@@H](C)N5CCCC5=O)nc4c3)ccc2[nH]1)N1CCCC1=O [Compound 83],≤ 5
10,CC(C)[C@H](NC(=O)OC(C)(C)C)C(=O)N1CCC[C@H]1c1nc2ccc(-c3ccc(-c4ccc5nc([C@@H]6CCCN6C(=O)[C@@H](NC(=O)OC(C)(C)C)C(C)C)[nH]c5c4)cc3)cc2[nH]1 [Compound 189],5 to 5000
11,COC(=O)N[C@H](C(=O)N1CCCC1c1nc2cc(-c3ccc(-c4ccc(-c5ccc6[nH]c(C7CCCN7C(=O)[C@@H](NC(=O)OC)C(C)C)nc6c5)s4)s3)ccc2[nH]1)C(C)C (some centres unmarked) [Compound 217],≤ 5
12,CC(C)(C)OC(=O)N1CC[C@H]1C(=O)N1CCC[C@H]1c1nc2cc(C#Cc3ccc4[nH]c([C@@H]5CCCN5C(=O)[C@@H]5CCN5C(=O)OC(C)(C)C)nc4c3)ccc2[nH]1 [Compound 129],> 5000
13,COC(=O)N[C@H](C(=O)N1C[C@@H](C)C[C@H]1c1nc2cc(-c3ccc(-c4ccc5nc([C@@H]6C[C@H](C)CN6C(=O)[C@H](C(C)C)N(C(=O)OC)C(C)C)[nH]c5c4)cc3)ccc2[nH]1)C(C)C [Compound 284],≤ 5
14,COC(=O)N[C@H](C(=O)N1CCC[C@H]1c1nc2cc(N3CCCN(c4ccc5nc([C@@H]6CCCN6C(=O)[C@@H](NC(=O)OC)C(C)C)[nH]c5c4)CC3)ccc2[nH]1)C(C)C [Compound 328],≤ 5
15,"CC(C)[C@H](NC(=O)O[C@H]1CCOC1)C(=O)N1CCC[C@H]1c1nc2cc(-c3cscc3-c3ccc4[nH]c([C@@H]5CCCN5C(=O)[C@@H](NC(=O)O[C@H]5CCOC5)C(C)C)nc4c3)ccc2[nH]1 [Compound 45, bis((S)-tetrahydrofuran-3-yl)-(2S,2′S)-1,1′-((2S,2′S)-2,2′-(5,5′-(thiophene-3,4-diyl)bis(1H-benzo[d]imidazole-5,2-diyl))bis(pyrrolidine-2,1-diyl))bis(3-methyl-1-oxobutane-2,1-diyl)dicarbamate]",5 to 5000
16,COC(=O)N[C@H](C(=O)N1C(C)CC[C@H]1c1nc2cc(-c3ccc(-c4ccc5[nH]c([C@@H]6CCC(C)N6C(=O)[C@@H](NC(=O)OC)C(C)C)nc5c4)c(C)c3)ccc2[nH]1)C(C)C (some centres unmarked) [Compound 300],≤ 5
17,COC(=O)N[C@H](C(=O)N1C[C@H](OC)C[C@H]1c1nc2cc(-c3ccc(-c4ccc5[nH]c([C@@H]6C[C@@H](OC)CN6C(=O)[C@@H](NC(=O)OC)C(C)C)nc5c4)cc3)ccc2[nH]1)C(C)C [Compound 174],≤ 5

# Source: patent US8354419B2, “Benzimidazole analogues for the treatment or prevention of flavivirus infections” (Vertex Pharmaceuticals Incorporated, priority 2009, dated 2013)
